Read-outs that look alike come from different tables or passages of the source.
Assay: Single rising oral dose (10-150 mg IR) safety, tolerance and pharmacokinetics in healthy male volunteers
Assay type: in vivo, human
Details: human, plasma, oral; for MRT inf: read-out: MRT0-∞; for AUC(0-t): read-out: AUC0-t
Excerpt: Fifty (50) healthy male adult volunteers, between the ages of 19 and 43 years (mean±SD: 28±6 years) were enrolled in the study and randomized to the […] different treatments. […] The subjects were divided into panels of 10 subjects/dose group. Seven subjects in each group received the test drug, while three received an identical-looking placebo. […] The five treatments are outlined below:
The subjects were admitted to the clinic the night before dose administration and fasted from approximately 10 hour before to 4 hour after ingestion of the study capsules. Treatments were administered with 240 mL of mineral water between 08:00 and 09:00 hours. […] The assay calibration range was 5 to 2,000 ng/mL.
The values of Cmax and Tmax were the observed value for each subject. The terminal elimination rate constant λz was derived from the log-linear disposition phase of the concentration-time curve using linear least-squares regression for which the program determined the appropriate number of terminal points to calculate λz. At least three terminal plasma concentrations were used for estimating λz. The t1/2 (HL_Lambda_z) was calculated as ln 2/λz. AUC0-t and AUMC0-t were determined using the linear trapezoidal rule for each increasing concentration and the log-trapezoidal rule for descending concentrations. The AUC values from the last quantifiable time point to infinity was calculated as Ct/λz. This value was added to AUC0-t to obtain AUC0-∞. […] Oral clearance was calculated as Dose/AUC0-∞. The 90% confidence intervals were calculated for all of the variables.
SAS, version 8.2, was used for the analysis.

SMILES: Clc1ccc([C@]23CNC[C@H]2C3)cc1Cl [amitifadine, (+)-1-(3,4-dichlorophenyl)-3-azabicyclo[3.1.0]hexane]
- half-life (10 mg, individual subject, read-out: t1/2 (converted)): 3.47 h
- MRT inf (25 mg, individual subject): 4.81 h
- AUC(0-inf) (50 mg, individual subject): 1690 ng·h/mL
- MRT inf (50 mg, individual subject): 5.18 h
- half-life (50 mg, individual subject, read-out: t1/2 (converted)): 3.25 h
- AUC(0-inf) (100 mg, individual subject): 5010 ng·h/mL
- AUC(0-t) (100 mg, individual subject): 4960 ng·h/mL
- MRT inf (100 mg, individual subject): 4.92 h
- half-life (100 mg, individual subject, read-out: t1/2 (converted)): 3.94 h
- AUC(0-inf) (150 mg, individual subject): 7300 ng·h/mL
- AUC(0-t) (150 mg, individual subject): 7210 ng·h/mL
- MRT inf (150 mg, individual subject): 5.67 h
- AUC(0-inf) (male, 10 mg, Geometric Mean): 418 ng·h/mL
- AUC(0-t) (male, 10 mg, Geometric Mean): 377 ng·h/mL
- MRT inf (male, 10 mg, Geometric Mean): 5.21 h
- Tmax (male, 10 mg, Geometric Mean, read-out: Tmax): 0.696 h
- half-life (male, 10 mg, Geometric Mean, read-out: t1/2 (converted)): 3.4 h
- AUC(0-inf) (male, 10 mg, Mean (n = 7)): 429 ng·h/mL
- AUC(0-t) (male, 10 mg, Mean (n = 7)): 387 ng·h/mL
- MRT inf (male, 10 mg, Mean (n = 7)): 5.23 h
- half-life (male, 10 mg, Mean (n = 7), read-out: t1/2 (converted)): 3.42 h
- AUC(0-inf) (male, 10 mg, Median): 454 ng·h/mL
- AUC(0-t) (male, 10 mg, Median): 409 ng·h/mL
- MRT inf (male, 10 mg, Median): 5.35 h
- half-life (male, 10 mg, Median, read-out: t1/2 (converted)): 3.47 h
- AUC(0-inf) (male, 25 mg, Geometric Mean): 1430 ng·h/mL
- AUC(0-t) (male, 25 mg, Geometric Mean): 1340 ng·h/mL
- MRT inf (male, 25 mg, Geometric Mean): 4.79 h
- Tmax (male, 25 mg, Geometric Mean, read-out: Tmax): 0.863 h
- half-life (male, 25 mg, Geometric Mean, read-out: t1/2 (converted)): 2.97 h
- AUC(0-inf) (male, 25 mg, Mean (n = 7)): 1470 ng·h/mL
- AUC(0-t) (male, 25 mg, Mean (n = 7)): 1390 ng·h/mL
- MRT inf (male, 25 mg, Mean (n = 7)): 4.83 h
- half-life (male, 25 mg, Mean (n = 7), read-out: t1/2 (converted)): 3.15 h
- AUC(0-inf) (male, 25 mg, Median): 1300 ng·h/mL
- AUC(0-t) (male, 25 mg, Median): 1190 ng·h/mL
- MRT inf (male, 25 mg, Median): 4.65 h
- half-life (male, 25 mg, Median, read-out: t1/2 (converted)): 3 h
- AUC(0-inf) (male, 50 mg, Geometric Mean): 2420 ng·h/mL
- AUC(0-t) (male, 50 mg, Geometric Mean): 2320 ng·h/mL
- MRT inf (male, 50 mg, Geometric Mean): 5.23 h
- Tmax (male, 50 mg, Geometric Mean, read-out: Tmax): 1.02 h
- half-life (male, 50 mg, Geometric Mean, read-out: t1/2 (converted)): 3.65 h
- AUC(0-inf) (male, 50 mg, Mean (n = 7)): 2490 ng·h/mL
- AUC(0-t) (male, 50 mg, Mean (n = 7)): 2390 ng·h/mL
- MRT inf (male, 50 mg, Mean (n = 7)): 5.25 h
- half-life (male, 50 mg, Mean (n = 7), read-out: t1/2 (converted)): 3.68 h
- AUC(0-inf) (male, 50 mg, Median): 2200 ng·h/mL
- AUC(0-t) (male, 50 mg, Median): 2120 ng·h/mL
- MRT inf (male, 50 mg, Median): 5.29 h
- Tmax (male, 50 mg, Median, read-out: Tmax): 1 h
- half-life (male, 50 mg, Median, read-out: t1/2 (converted)): 3.62 h
- AUC(0-inf) (male, 100 mg, Geometric Mean): 4850 ng·h/mL
- AUC(0-t) (male, 100 mg, Geometric Mean): 4780 ng·h/mL
- MRT inf (male, 100 mg, Geometric Mean): 5.7 h
- half-life (male, 100 mg, Geometric Mean, read-out: t1/2 (converted)): 4.15 h
- AUC(0-inf) (male, 100 mg, Mean (n = 7)): 4880 ng·h/mL
- AUC(0-t) (male, 100 mg, Mean (n = 7)): 4810 ng·h/mL
- MRT inf (male, 100 mg, Mean (n = 7)): 5.75 h
- half-life (male, 100 mg, Mean (n = 7), read-out: t1/2 (converted)): 4.15 h
- AUC(0-inf) (male, 100 mg, Median): 4820 ng·h/mL
- AUC(0-t) (male, 100 mg, Median): 4730 ng·h/mL
- MRT inf (male, 100 mg, Median): 5.69 h
- half-life (male, 100 mg, Median, read-out: t1/2 (converted)): 4.22 h
- AUC(0-inf) (male, 150 mg, Geometric Mean): 8490 ng·h/mL
- AUC(0-t) (male, 150 mg, Geometric Mean): 8360 ng·h/mL
- MRT inf (male, 150 mg, Geometric Mean): 5.97 h
- Tmax (male, 150 mg, Geometric Mean, read-out: Tmax): 1.63 h
- half-life (male, 150 mg, Geometric Mean, read-out: t1/2 (converted)): 3.64 h
- AUC(0-inf) (male, 150 mg, Mean (n = 7)): 8620 ng·h/mL
- AUC(0-t) (male, 150 mg, Mean (n = 7)): 8510 ng·h/mL
- MRT inf (male, 150 mg, Mean (n = 7)): 6.04 h
- half-life (male, 150 mg, Mean (n = 7), read-out: t1/2 (converted)): 3.71 h
- AUC(0-inf) (male, 150 mg, Median): 8010 ng·h/mL
- AUC(0-t) (male, 150 mg, Median): 7940 ng·h/mL
- MRT inf (male, 150 mg, Median): 5.87 h
- half-life (male, 150 mg, Median, read-out: t1/2 (converted)): 3.68 h
- half-life (male, 10 to 150 mg, read-out: elimination half-life): 3 to 4 h
- Tmax (male, 10 to 150 mg, read-out: mean Tmax): 0.7 to 1.75 h
- MRT (male, 10 to 150 mg, read-out: mean residence time): 5 to 6 h
